Here are results for 9 compounds from patent US12528786B2, “Plasma kallikrein inhibitors” (Merck Sharp & Dohme LLC, priority 2020, dated 2026).

SMILES strings stand for the structures.

T1 sequence (P03952 391-638 limits assumed): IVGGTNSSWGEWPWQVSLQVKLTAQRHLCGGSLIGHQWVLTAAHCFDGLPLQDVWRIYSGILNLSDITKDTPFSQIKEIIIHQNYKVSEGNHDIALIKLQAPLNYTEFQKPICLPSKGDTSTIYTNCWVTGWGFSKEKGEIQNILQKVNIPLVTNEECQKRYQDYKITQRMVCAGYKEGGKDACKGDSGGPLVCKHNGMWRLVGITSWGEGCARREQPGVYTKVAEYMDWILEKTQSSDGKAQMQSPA
T1 sequence (P03952 20-390 partner limits assumed): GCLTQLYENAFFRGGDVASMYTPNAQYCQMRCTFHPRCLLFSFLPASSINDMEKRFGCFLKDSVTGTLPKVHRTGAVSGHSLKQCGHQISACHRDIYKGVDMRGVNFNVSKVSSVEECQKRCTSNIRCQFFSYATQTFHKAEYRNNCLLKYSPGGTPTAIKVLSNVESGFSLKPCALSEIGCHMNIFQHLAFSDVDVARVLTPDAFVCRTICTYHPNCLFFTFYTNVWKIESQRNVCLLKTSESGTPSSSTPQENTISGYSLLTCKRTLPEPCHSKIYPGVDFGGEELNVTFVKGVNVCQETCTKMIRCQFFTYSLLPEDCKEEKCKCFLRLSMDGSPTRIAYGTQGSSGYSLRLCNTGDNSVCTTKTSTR

The assay has as its target T1, Human plasma kallikrein (Homo sapiens, UniProt P03952).
T1 construct: yields a heavy chain (371 amino acids) and a light chain (248 amino acids); purchased Enzyme Research Laboratories
The assay can be described thus: Kallikrein Assay (fluorogenic substrate hydrolysis, AFC release). The note with it: purified Human plasma kallikrein 0.5 nM; substrate Acetyl-K—P—R-AFC 100 mM; 50 mM HEPES pH 7.4. The format is biochemical. An outline of the steps:
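Enzyme–inhibitor equilibrated before substrate dilution to ≤0.2 Km; human plasma kallikrein at 0.5 nM final, Acetyl-K-P-R-AFC substrate, HEPES pH 7.4 buffer with NaCl, CaCl2, PEG 8000, at room temperature or 37° C. Linear-phase fluorescence rate gives percent inhibition, four-parameter logistic IC50, then Cheng-Prusoff Ki.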
A word on the IC50: it is the point on the concentration scale where inhibition reaches its midpoint. Compound `Cc1nc([C@@H](C)n2cc(C(=O)N[C@H]3C[C@@H](c4cc(Cl)ccc4C#N)C3)nn2)cnc1N1C[C@H]2CC2C1=O` (single isomer, unassigned) [Example 84] had a half-inhibitory concentration (IC50) of 1.6 nM. Take `Cc1nc(C(C)n2cc(C(=O)N[C@H]3C[C@@H](c4cc(Cl)ccc4C#N)C3)nn2)cnc1N1C[C@H]2CC2C1=O` (single isomer, unassigned) [Example 85]: the IC50 amounted to 0.9 nM.

`Cc1c(C(C)n2cc(C(=O)N[C@H]3C[C@@H](c4cc(Cl)ccc4C#N)C3)nn2)cnc(N2C[C@H]3C[C@H]3C2=O)c1C` (single isomer, unassigned) [Example 86, N-((cis)-3-(5-chloro-2-cyanophenyl)cyclobutyl)-1-((R or S)-1-(4,5-dimethyl-6-((1R,5S)-2-oxo-3-azabicyclo[3.1.0]hexan-3-yl)pyridin-3-yl)ethyl)-1H-1,2,3-triazole-4-carboxamide] gave an IC50 of 1.1 nM.

As for `Cc1c(C(C)n2cc(C(=O)N[C@H]3C[C@@H](c4cc(Cl)ccc4C#N)C3)nn2)cnc(N2C[C@H]3C[C@H]3C2=O)c1C` (single isomer, unassigned) [Example 87, N-((cis)-3-(5-chloro-2-cyanophenyl)cyclobutyl)-1-((S or R)-1-(4,5-dimethyl-6-((1R,5S)-2-oxo-3-azabicyclo[3.1.0]hexan-3-yl)pyridin-3-yl)ethyl)-1H-1,2,3-triazole-4-carboxamide], it took 0.5 nM to reach half-maximal inhibition (IC50). The figure for `COc1cc(N2C[C@H]3C[C@H]3C2=O)ncc1C(C)n1cc(C(=O)N[C@H]2C[C@@H](c3cc(Cl)ccc3C#N)C2)nn1` (single isomer, unassigned) [Example 88, N-((cis)-3-(5-chloro-2-cyanophenyl)cyclobutyl)-1-((R or S)-1-(4-methoxy-6-((1R,5S)-2-oxo-3-azabicyclo[3.1.0]hexan-3-yl)pyridin-3-yl)ethyl)-1H-1,2,3-triazole-4-carboxamide] is 11.3 nM. The figure for `COc1cc(N2C[C@H]3C[C@H]3C2=O)ncc1C(C)n1cc(C(=O)N[C@H]2C[C@@H](c3cc(Cl)ccc3C#N)C2)nn1` (single isomer, unassigned) [Example 89, N-((cis)-3-(5-chloro-2-cyanophenyl)cyclobutyl)-1-((S or R)-1-(4-methoxy-6-((1R,5S)-2-oxo-3-azabicyclo[3.1.0]hexan-3-yl)pyridin-3-yl)ethyl)-1H-1,2,3-triazole-4-carboxamide] is 1.1 nM. The figure for `Cc1cc(N2C[C@H]3C[C@H]3C2=O)cnc1C(C)n1cc(C(=O)N[C@H]2C[C@@H](c3cc(Cl)ccc3C#N)C2)nn1` (single isomer, unassigned) [Example 90, N-((cis)-3-(5-chloro-2-cyanophenyl)cyclobutyl)-1-((R or S)-1-(3-methyl-5-((1R,5S)-2-oxo-3-azabicyclo[3.1.0]hexan-3-yl)pyridin-2-yl)ethyl)-1H-1,2,3-triazole-4-carboxamide] is 153 nM; for `Cc1cc(N2C[C@H]3C[C@H]3C2=O)cnc1C(C)n1cc(C(=O)N[C@H]2C[C@@H](c3cc(Cl)ccc3C#N)C2)nn1` (single isomer, unassigned) [Example 91, N-((cis)-3-(5-chloro-2-cyanophenyl)cyclobutyl)-1-((S or R)-1-(3-methyl-5-((1R,5S)-2-oxo-3-azabicyclo[3.1.0]hexan-3-yl)pyridin-2-yl)ethyl)-1H-1,2,3-triazole-4-carboxamide] it is 1.5 nM. Take `CC(c1ncc(N2C[C@H]3C[C@H]3C2=O)cc1F)n1cc(C(=O)N[C@H]2C[C@@H](c3cc(Cl)ccc3C#N)C2)nn1` (single isomer, unassigned) [Example 92, N-((cis)-3-(5-chloro-2-cyanophenyl)cyclobutyl)-1-((R or S)-1-(3-fluoro-5-((1R,5S)-2-oxo-3-azabicyclo[3.1.0]hexan-3-yl)pyridin-2-yl)ethyl)-1H-1,2,3-triazole-4-carboxamide]: the IC50 was 38.1 nM.
